Experimental data: PMC9065177, “Polymer chimera of stapled oncolytic peptide coupled with anti-PD-L1 peptide boosts immunotherapy of colorectal cancer” (Theranostics, 2022)
Positions of bridges follow the written chain, without caps; N, C: chain ends. Non-standard residues stand in square brackets, D forms with d. Residues, ends and D or L forms follow the SMILES beside them. S5 = C=CCCC[C@](C)(N)C(=O)O

Legend:
red blood cells (RBC) = test: Hemolysis assay (hemoglobin release from erythrocytes); type: cell-based, mice
Experimental: The hemolytic activities of the peptides and peptide-polymer conjugates were evaluated by determining hemoglobin release from suspensions of mice blood. Fresh erythrocytes were obtained from the whole blood by centrifuging at 4 ℃ 1000 g for 30 min and washing with PBS 2 times. Then erythrocytes were diluted with PBS at the volume ration of 1:10. The 96-well plate was added to 100 μL erythrocyte suspension per well and incubated with peptides and conjugates solution with different concentrations for 1 h at 37 ℃, following centrifuged at 1000 rpm for 10 min. The supernatants were obtained and monitored by measuring absorbance at 570 nm (BioTek Cytation 5, USA) as previously described. 0.1% (v/v) Triton X-100 was used as a positive control and PBS was used as a negative control.

[1] = Proteolytic stability in α-chymotrypsin solution; type: in vitro ADME; settings: α-chymotrypsin solution, pH 7.4; after 1 h exposure to α-chymotrypsin; read-out: peptide remaining intact
Experimental: (§1) The peptides were dissolved in H2O to a final concentration at 2 mM, respectively. α-Chymotrypsin was dissolved in PBS (0.5 ng/μL, containing 2 mM CaCl2, pH 7.4). Then, the peptide solutions (50 μL) were incubated with α-chymotrypsin solution (950 μL) at 37 ℃. 100 μL of digestion mixture was taken at the different time and then quenched with 20 μL of hydrochloric acid (1 M). The percent residual peptide was monitored by HPLC at 214 nm. Each experiment was performed in triplicate.

α-Chymotrypsin = α-Chymotrypsin (Bos taurus, UniProt P00766); test: Proteolytic stability in α-chymotrypsin solution; type: in vitro ADME
Experimental: as §1

## CC[C@H](C)[C@H](NC(C)=O)C(=O)N[C@@H](CC(N)=O)C(=O)N[C@@H](CC(C)C)C(=O)N[C@@H](CCCCN)C(=O)N[C@@H](C)C(=O)N[C@@H](CC(C)C)C(=O)N[C@@H](C)C(=O)N[C@@H](C)C(=O)N[C@@]1(C)CCCC=CCCC[C@@](C)(C(=O)N[C@@H](CC(C)C)C(N)=O)NC(=O)[C@H](CCCCN)NC(=O)[C@H](CCCCN)NC(=O)[C@H](C)NC1=O [MP9] (Ac-INLKALAA[S5]AKK[S5]L-NH2; staple 9-13)
Red blood cells (RBC)
  RBC hemolytic activity (in words): lowest level of RBC hemolysis
[1]
  remaining at 1 h, 0.1 mM: > 87%
α-Chymotrypsin; 0.5 ng/μL α-chymotrypsin, pH 7.4, 37 ℃, read-out: T1/2 in α-chymotrypsin solution (converted)
  half-life: 316 min
α-Chymotrypsin; α-chymotrypsin
  fold increase in half-life (T1/2) versus MP: 12.55 fold
